Measurements published in US11242350B2, “Spirocyclic ROR-gamma modulators” (Escalier Biosciences B.V., priority 2018, dated 2022).

biological target: RORγt (Homo sapiens (Human), UniProt P51449); assay: Gal4 ligand binding assay (RORγt Gal fusion luciferase reporter assay in HEK293T cells); type: cell-based; details: RORγt inverse agonists in RORγt Gal fusion assay
In short: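 Stable HEK293T line expressing the receptor fused to the Gal4 DBD, with a Gal4 UAS-driven luciferase; constitutively active, so agonism and inverse agonism both register. 10-point 1:3 titrations, 60 μM to 3 nM as prepared in media (added as 2×), 0.2% final DMSO; 24 h at 37 °C. Luminescence normalised to vehicle-only wells.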

Sequence of RORγt (P51449 269-508): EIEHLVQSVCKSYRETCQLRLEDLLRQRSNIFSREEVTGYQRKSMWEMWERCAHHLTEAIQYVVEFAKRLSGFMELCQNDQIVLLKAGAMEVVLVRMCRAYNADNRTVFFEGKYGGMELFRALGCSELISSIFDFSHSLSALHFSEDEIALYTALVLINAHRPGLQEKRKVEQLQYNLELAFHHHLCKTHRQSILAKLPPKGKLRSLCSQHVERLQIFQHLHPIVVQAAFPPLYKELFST

| IC50 [nM] | Structure (SMILES) |
| --- | --- |
| 50 to 250 | CCc1cc(CN2CC3(CCN(C(=O)OC(C)(C)C)C3)C2)ccc1-c1ccc(C(O)(C(F)(F)F)C(F)(F)F)cc1 [Example 38, tert-butyl 2-((2-ethyl-4′-(1,1,1,3,3,3-hexafluoro-2-hydroxypropan-2-yl)-[1,1′-biphenyl]-4-yl)methyl)-2,6-diazaspiro[3.4]octane-6-carboxylate] |
| < 50 | CC(C)c1c(-c2ccc(C(O)(C(F)(F)F)C(F)(F)F)cc2)cc(F)c(CN2CC3(C2)CN(S(C)(=O)=O)C3)c1F [Example 8, 2-(3′,5′-difluoro-2′-isopropyl-4′-((6-(methylsulfonyl)-2,6-diazaspiro[3.3]heptan-2-yl)methyl)-[1,1′-biphenyl]-4-yl)-1,1,1,3,3,3-hexafluoropropan-2-ol] |
| < 50 | CCc1c(F)c(CN2CC3(C2)CN(S(C)(=O)=O)C3)cc(F)c1-c1ccc(C(O)(C(F)(F)F)C(F)(F)F)cc1F [Example 70, 2-(2′-ethyl-2,3′,6′-trifluoro-4′-((6-(methylsulfonyl)-2,6-diazaspiro[3.3]heptan-2-yl)methyl)-[1,1′-biphenyl]-4-yl)-1,1,1,3,3,3-hexafluoropropan-2-ol] |
| < 50 | CCc1cc(CN2CCC3(C2)CS(=O)(=O)C3)ccc1-c1ccc(C(O)(C(F)(F)F)C(F)(F)F)cc1C [Example 16, 6-((2-ethyl-4′-(1,1,1,3,3,3-hexafluoro-2-hydroxypropan-2-yl)-2′-methyl-[1,1′-biphenyl]-4-yl)methyl)-2-thia-6-azaspiro[3.4]octane 2,2-dioxide] |
| < 50 | CCc1cc(CN2CC3(C2)CN(S(C)(=O)=O)C3)ccc1-c1ccc(C(O)(C(F)(F)F)C(F)(F)F)cc1F [Example 34, 2-(2′-ethyl-2-fluoro-4′-((6-(methylsulfonyl)-2,6-diazaspiro[3.3]heptan-2-yl)methyl)-[1,1′-biphenyl]-4-yl)-1,1,1,3,3,3-hexafluoropropan-2-ol] |
| 50 to 250 | CC(C)c1c(F)c(CN2CCC3(C2)CN(S(C)(=O)=O)C3)cc(F)c1-c1ccc(C(O)(C(F)(F)F)C(F)(F)F)cc1 [Example 74, 2-(3′,6′-difluoro-2′-isopropyl-4′-((2-(methylsulfonyl)-2,6-diazaspiro[3.4]octan-6-yl)methyl)-[1,1′-biphenyl]-4-yl)-1,1,1,3,3,3-hexafluoropropan-2-ol] |
| < 50 | CCc1cc(C(O)(C(F)(F)F)C(F)(F)F)ccc1-c1ccc(CN2CC3(C2)CN(S(C)(=O)=O)C3)cc1C [Example 76, 2-(2-ethyl-2′-methyl-4′-((6-(methylsulfonyl)-2,6-diazaspiro[3.3]heptan-2-yl)methyl)-[1,1′-biphenyl]-4-yl)-1,1,1,3,3,3-hexafluoropropan-2-ol] |
| > 250 | CCc1cc(CN2CC3(CC[S+]([O-])C3)C2)ccc1-c1ccc(C(O)(C(F)(F)F)C(F)(F)F)cc1 (stereo not shown) [Example 25, 2-((2-ethyl-4′-(1,1,1,3,3,3-hexafluoro-2-hydroxypropan-2-yl)-[1,1′-biphenyl]-4-yl)methyl)-6-thia-2-azaspiro[3.4]octane 6-oxide] |
| > 250 | CC(=O)N1CC2(CN(Cc3ccc(-c4ccc(C(O)(C(F)(F)F)C(F)(F)F)cc4)c(C)c3)C2)C1 [Example 49, 1-(6-((4′-(1,1,1,3,3,3-hexafluoro-2-hydroxypropan-2-yl)-2-methyl-[1,1′-biphenyl]-4-yl)methyl)-2,6-diazaspiro[3.3]heptan-2-yl)ethan-1-one] |
| < 50 | CS(=O)(=O)N1CC2(CN(Cc3ccc(-c4ccc(C(O)(C(F)(F)F)C(F)(F)F)cc4)c(C4CC4)c3)C2)C1 [Example 42, 2-(2′-cyclopropyl-4′-((6-(methylsulfonyl)-2,6-diazaspiro[3.3]heptan-2-yl)methyl)-[1,1′-biphenyl]-4-yl)-1,1,1,3,3,3-hexafluoropropan-2-ol] |
| > 250 | CN(C)C(=O)c1cc(CN2CC3(C2)CN(S(C)(=O)=O)C3)ccc1-c1ccc(C(O)(C(F)(F)F)C(F)(F)F)cc1 [Example 55, 4′-(1,1,1,3,3,3-hexafluoro-2-hydroxypropan-2-yl)-N,N-dimethyl-4-((6-(methylsulfonyl)-2,6-diazaspiro[3.3]heptan-2-yl)methyl)-[1,1′-biphenyl]-2-carboxamide] |
| < 50 | CC(C)c1cc(CN2CC3(C2)CN(S(C)(=O)=O)C3)c(F)cc1-c1ccc(C(O)(C(F)(F)F)C(F)(F)F)cc1F [Example 80, 2-(2,5′-difluoro-2′-isopropyl-4′-((6-(methylsulfonyl)-2,6-diazaspiro[3.3]heptan-2-yl)methyl)-[1,1′-biphenyl]-4-yl)-1,1,1,3,3,3-hexafluoropropan-2-ol] |
| < 50 | CCc1cc(CN2CC3(C2)CN(S(C)(=O)=O)C3)ncc1-c1ccc(C(O)(C(F)(F)F)C(F)(F)F)cc1C [Example 64, 2-(4-(4-ethyl-6-((6-(methylsulfonyl)-2,6-diazaspiro[3.3]heptan-2-yl)methyl)pyridin-3-yl)-3-methylphenyl)-1,1,1,3,3,3-hexafluoropropan-2-ol] |
| < 50 | CCc1c(F)c(CN2CC3(C2)CN(S(C)(=O)=O)C3)cc(F)c1-c1ccc(C(O)(C(F)(F)F)C(F)(F)F)cc1C [Example 68, 2-(2′-ethyl-3′,6′-difluoro-2-methyl-4′-((6-(methylsulfonyl)-2,6-diazaspiro[3.3]heptan-2-yl)methyl)-[1,1′-biphenyl]-4-yl)-1,1,1,3,3,3-hexafluoropropan-2-ol] |
| < 50 | Cc1cc(C(O)(C(F)(F)F)C(F)(F)F)ccc1-c1c(F)cc(CN2CC3(C2)CN(S(C)(=O)=O)C3)c(F)c1C(C)C [Example 84, 2-(3′,6′-difluoro-2′-isopropyl-2-methyl-4′-((6-(methylsulfonyl)-2,6-diazaspiro[3.3]heptan-2-yl)methyl)-[1,1′-biphenyl]-4-yl)-1,1,1,3,3,3-hexafluoropropan-2-ol] |
| 50 to 250 | CCc1cc(CN2CC3(C2)CN(S(=O)(=O)CC)C3)ccc1-c1ccc(C(O)(C(F)(F)F)C(F)(F)F)cc1 [Example 22, 2-(2′-ethyl-4′-((6-(ethylsulfonyl)-2,6-diazaspiro[3.3]heptan-2-yl)methyl)-[1,1′-biphenyl]-4-yl)-1,1,1,3,3,3-hexafluoropropan-2-ol] |
| 50 to 250 | CCc1cc(CN2CC3(C2)CN(S(=O)(=O)C2CC2)C3)ccc1-c1ccc(C(O)(C(F)(F)F)C(F)(F)F)cc1 [Example 41, 2-(4′-((6-(cyclopropylsulfonyl)-2,6-diazaspiro[3.3]heptan-2-yl)methyl)-2′-ethyl-[1,1′-biphenyl]-4-yl)-1,1,1,3,3,3-hexafluoropropan-2-ol] |
| 50 to 250 | Cc1cc(C(O)(C(F)(F)F)C(F)(F)F)ccc1-c1cccc(N2CC3(C2)CN(S(C)(=O)=O)C3)c1C [Example 66, 2-(2,2′-dimethyl-3′-(6-(methylsulfonyl)-2,6-diazaspiro[3.3]heptan-2-yl)-[1,1′-biphenyl]-4-yl)-1,1,1,3,3,3-hexafluoropropan-2-ol] |
| < 50 | CS(=O)(=O)N1CC2(CN(Cc3cc(F)c(-c4ccc(C(O)(C(F)(F)F)C(F)(F)F)cc4F)c(C4CC4)c3F)C2)C1 [Example 91, 2-(2′-cyclopropyl-2,3′,6′-trifluoro-4′-((6-(methylsulfonyl)-2,6-diazaspiro[3.3]heptan-2-yl)methyl)-[1,1′-biphenyl]-4-yl)-1,1,1,3,3,3-hexafluoropropan-2-ol] |
| < 50 | CC(C)(C)c1cc(CN2CC3(C2)CN(S(C)(=O)=O)C3)ccc1-c1ccc(C(O)(C(F)(F)F)C(F)(F)F)cc1 [Example 23, 2-(2′-(tert-butyl)-4′-((6-(methylsulfonyl)-2,6-diazaspiro[3.3]heptan-2-yl)methyl)-[1,1′-biphenyl]-4-yl)-1,1,1,3,3,3-hexafluoropropan-2-ol] |
| 50 to 250 | CCc1cc(CN2CCC3(CNC(=O)C3)C2)ccc1-c1ccc(C(O)(C(F)(F)F)C(F)(F)F)cc1 (stereo not shown) [Example 54, 7-((2-ethyl-4′-(1,1,1,3,3,3-hexafluoro-2-hydroxypropan-2-yl)-[1,1′-biphenyl]-4-yl)methyl)-2,7-diazaspiro[4.4]nonan-3-one] |
| > 250 | CS(=O)(=O)N1CC2(CN(Cc3ccc(-c4ccc(C(O)(C(F)(F)F)C(F)(F)F)cc4)c(Cl)c3)C2)C1 [Example 47, 2-(2′-chloro-4′-((6-(methylsulfonyl)-2,6-diazaspiro[3.3]heptan-2-yl)methyl)-[1,1′-biphenyl]-4-yl)-1,1,1,3,3,3-hexafluoropropan-2-ol] |
| < 50 | CCc1cc(CN2CC3(C2)CS(=O)(=O)C3)ccc1-c1ccc(C(O)(C(F)(F)F)C(F)(F)F)cc1C [Example 18, 6-((2-ethyl-4′-(1,1,1,3,3,3-hexafluoro-2-hydroxypropan-2-yl)-2′-methyl-[1,1′-biphenyl]-4-yl)methyl)-2-thia-6-azaspiro[3.3]heptane 2,2-dioxide] |
| < 50 | CCc1cc(CN2CC3(C2)CN(S(C)(=O)=O)C3)c(F)cc1-c1ccc(C(O)(C(F)(F)F)C(F)(F)F)cc1Cl [Example 83, 2-(2-chloro-2′-ethyl-5′-fluoro-4′-((6-(methylsulfonyl)-2,6-diazaspiro[3.3]heptan-2-yl)methyl)-[1,1′-biphenyl]-4-yl)-1,1,1,3,3,3-hexafluoropropan-2-ol] |
| < 50 | CC(C)c1c(F)c(CN2CC3(C2)CN(S(C)(=O)=O)C3)cc(F)c1-c1ccc(C(O)(C(F)(F)F)C(F)(F)F)cc1 [Example 7, 2-(3′,6′-difluoro-2′-isopropyl-4′-((6-(methylsulfonyl)-2,6-diazaspiro[3.3]heptan-2-yl)methyl)-[1,1′-biphenyl]-4-yl)-1,1,1,3,3,3-hexafluoropropan-2-ol] |
